The values below come from PubChem BioAssay AID296 (DTP/NCI, 2004).

Several values for one entry are separate records, joined by “and”; a condition that tells them apart may be missing. Identical values can stand only once. Records with an inconclusive call do not appear. Where a SMILES comes first, the peptide text is derived from it. The star is where a group is joined. Trt = c1ccc(C(c2ccccc2)(c2ccccc2)*)cc1; Cbz = O=C(OCc1ccccc1)*; Bn = c1ccc(C*)cc1; βAla = NCCC(=O)O

In the assay the test system is MX-1 breast xenograft, nude mice, tumor weight T/C. Nature of the assay: NCI In Vivo Anticancer Drug Screen. Data for tumor model Human Mammary Carcinoma MX-1 Xenograft (intrarenal inoculation) in NU/NU Swiss (nude) mice. Particulars: endpoint: mean tumor weight change, higher = larger tumour. In short, it runs like this: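 Antitumour effect measured in vivo against vehicle controls, expressed as T/C.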
(Xenograft models place foreign cells or tissue in a host animal.)

[1] abbreviates: dose: 300.0 mg/kg/injection, schedule: Q04DX003 (sc), vehicle: Klucel (hydroxypropylcellulose) (HPC).
Setting [2] is: dose: 600.0 mg/kg/injection, schedule: Q04DX003 (sc), vehicle: Klucel (hydroxypropylcellulose) (HPC).
[3] abbreviates: dose: 300.0 mg/kg/injection, schedule: Q04DX003 (sc), vehicle: saline with Tween-80.
The mark [4] stands for this setting: dose: 600.0 mg/kg/injection, schedule: Q04DX003 (sc), vehicle: saline with Tween-80.
Setting [5] is: dose: 1200.0 mg/kg/injection, schedule: Q04DX003 (sc), vehicle: saline with Tween-80.
[6] abbreviates: dose: 150.0 mg/kg/injection, schedule: Q04DX003 (sc), vehicle: saline with Tween-80.
The mark [7] stands for this setting: dose: 100.0 mg/kg/injection, schedule: Q04DX003 (sc), vehicle: saline with Tween-80.
Where [8] appears, read: dose: 150.0 mg/kg/injection, schedule: Q04DX003 (sc), vehicle: Klucel (hydroxypropylcellulose) (HPC).

Turning to `Nc1nc(/C=C(/O)c2ccccc2)c2ncn(C3OC(CO)C(O)C3O)c2n1` (stereo not drawn), the T/C reads like this: (dose: 200.0 mg/kg/injection, schedule: Q04DX003 (sc), vehicle: distilled water + Tween-80) 97 % of control; (dose: 400.0 mg/kg/injection, schedule: Q04DX003 (sc), vehicle: distilled water + Tween-80) 100 % of control; (dose: 800.0 mg/kg/injection, schedule: Q04DX003 (sc), vehicle: distilled water + Tween-80) 92 % of control; (dose: 1600.0 mg/kg/injection, schedule: Q04DX003 (sc), vehicle: distilled water + Tween-80) 99 % of control.
For `Cc1ccc(C2NC(=S)N3C(c4ccc(C)cc4)NC(=S)N23)cc1` (stereo not drawn), the T/C reads like this: under setting [1], 91 % of control; under setting [2], 112 % of control; (dose: 2400.0 mg/kg/injection, schedule: Q04DX003 (sc), vehicle: Klucel (hydroxypropylcellulose) (HPC)) 89 % of control.
With `CCOC(=O)C(C)(C)Oc1ccc(Cl)cc1`, the T/C reads like this: under setting [3], 95 % of control; under setting [4], 90 % of control; under setting [5], 71 % of control.
In the case of `CCN(CC)c1ccc2[nH]c3c(C(N)=O)cc(=O)c(=O)c=3oc2c1`, the T/C under setting [6] was 88 % of control, the T/C under setting [3] was 84 % of control and the T/C under setting [5] was 101 % of control.
`COc1cc2c(c(OC)c1OC)-c1ccc(OC)c(=O)cc1[C@@H](NC(C)=O)CC2`: the T/C runs as follows: (dose: 0.25 mg/kg/injection, schedule: Q01DX010 (sc), vehicle: saline) 94 % of control; (dose: 0.5 mg/kg/injection, schedule: Q01DX010 (sc), vehicle: saline) 30 % of control.
Regarding `COc1cc(C2c3cc4c(cc3C(O)C(CO)C2CO)OCO4)cc(OC)c1OC` (stereo not drawn), the T/C under setting [7] was 109 % of control; the T/C (dose: 200.0 mg/kg/injection, schedule: Q04DX003 (sc), vehicle: saline with Tween-80) is 97 % of control; the T/C (dose: 400.0 mg/kg/injection, schedule: Q04DX003 (sc), vehicle: saline with Tween-80) was 106 % of control; the T/C (dose: 800.0 mg/kg/injection, schedule: Q04DX003 (sc), vehicle: saline with Tween-80) is 86 % of control.
Take `CCCCNCCCNCCCNC(=O)c1csc(-c2csc(CCNC(=O)C(NC(=O)C(C)C(O)C(C)NC(=O)C(NC(=O)c3nc(C(CC(N)=O)NCC(N)C(N)=O)nc(N)c3C)C(OC3OC(CO)C(O)C(O)C3OC3OC(CO)C(O)C(OC(N)=O)C3O)c3cnc[nH]3)C(C)O)n2)n1` (stereo not drawn): the T/C is 104 % of control (dose: 8.0 mg/kg/injection, schedule: Q01DX010 (sc), vehicle: saline); 73 % of control (dose: 16.0 mg/kg/injection, schedule: Q01DX010 (sc), vehicle: saline); 39 % of control (dose: 32.0 mg/kg/injection, schedule: Q01DX010 (sc), vehicle: saline).
`c1ccc2c(c1)nnn1c3cnccc3nc21`: the T/C runs as follows: (dose: 12.5 mg/kg/injection, schedule: Q01DX010 (sc), vehicle: saline with Tween-80) 36 % of control; (dose: 25.0 mg/kg/injection, schedule: Q01DX010 (sc), vehicle: saline with Tween-80) 86 % of control; (dose: 50.0 mg/kg/injection, schedule: Q01DX010 (sc), vehicle: saline with Tween-80) 63 % of control.
As for `CCC1(O)CC2CN(CCc3c([nH]c4ccccc34)C(C(=O)OC)(c3cc4c(cc3OC)N(C)C3C(O)(C(N)=O)C(O)C5(CC)C=CCN6CCC43C65)C2)C1` (stereo not drawn) (tested in a mixture with another compound), the T/C (dose: 0.75 mg/kg/injection, schedule: Q04DX003 (sc), vehicle: water) is 27 % of control; the T/C (dose: 1.5 mg/kg/injection, schedule: Q04DX003 (sc), vehicle: water) was 1 % of control; the T/C (dose: 6.0 mg/kg/injection, schedule: Q04DX003 (sc), vehicle: water) was -44 % of control.
Consider `Nc1nnc[se]1`, for which the T/C runs as follows: under setting [7], 54 % of control; (dose: 1600.0 mg/kg/injection, schedule: Q04DX003 (sc), vehicle: saline with Tween-80) 74 % of control.
On to `COc1ccc(S(=O)(=O)N=N/C=C2\C=CC=CN2O)cc1OC`, for which the T/C by setting is: (dose: 37.5 mg/kg/injection, schedule: Q04DX003 (sc), vehicle: saline with Tween-80) 81 % of control; (dose: 75.0 mg/kg/injection, schedule: Q04DX003 (sc), vehicle: saline with Tween-80) 61 % of control; under setting [6], 47 % of control; under setting [3], 64 % of control.
As to `COC(=O)Nc1cccc(-c2nc3ccc(NC(=O)OC)cc3c(=O)n2-c2ccccc2)c1`, the T/C by setting is: (dose: 25.0 mg/kg/injection, schedule: Q01DX010 (sc), vehicle: Klucel (hydroxypropylcellulose) (HPC)) 87 % of control; (dose: 100.0 mg/kg/injection, schedule: Q01DX010 (sc), vehicle: Klucel (hydroxypropylcellulose) (HPC)) 33 % of control; (dose: 400.0 mg/kg/injection, schedule: Q01DX010 (sc), vehicle: Klucel (hydroxypropylcellulose) (HPC)) 123 % of control.
Regarding `NC(=S)c1ncn(C2OC(CO)C(O)C2O)c1N` (stereo not drawn), the T/C (dose: 300.0 mg/kg/injection, schedule: Q04DX003 (sc), vehicle: suspension in saline) is 50 % of control; the T/C (dose: 600.0 mg/kg/injection, schedule: Q04DX003 (sc), vehicle: suspension in saline) was 89 % of control; the T/C (dose: 1200.0 mg/kg/injection, schedule: Q04DX003 (sc), vehicle: suspension in saline) is 95 % of control; the T/C (dose: 2400.0 mg/kg/injection, schedule: Q04DX003 (sc), vehicle: suspension in saline) was 99 % of control.
Turning to `CC1(O)C=CC(=O)C=C1`, the T/C was 109 % of control (dose: 25.0 mg/kg/injection, schedule: Q04DX003 (ip), vehicle: water) and 89 % of control (dose: 50.0 mg/kg/injection, schedule: Q04DX003 (ip), vehicle: water).
Turning to `CC(C)CC(NC(=O)CF)C(=O)O` (stereo not drawn), the T/C is, setting by setting: (dose: 10.0 mg/kg/injection, schedule: Q04DX003 (sc), vehicle: saline) 92 % of control; (dose: 20.0 mg/kg/injection, schedule: Q04DX003 (sc), vehicle: saline) 89 % of control.
As to `C[C@]12CC[C@@H]3c4ccc(O)cc4CC[C@H]3[C@@H]1CC[C@@H]2O`, the T/C is, setting by setting: under setting [8], 101 % of control; under setting [1], 101 % of control; under setting [2], 101 % of control; (dose: 1200.0 mg/kg/injection, schedule: Q04DX003 (sc), vehicle: Klucel (hydroxypropylcellulose) (HPC)) 104 % of control.
Consider `COC(=O)C(CSC(c1ccccc1)(c1ccccc1)c1ccccc1)NC(=O)C(CSCc1ccccc1)NC(=O)CCNC(=O)OCc1ccccc1` (stereo not drawn) ({Cbz-βAla}-Cys(Bn)-Cys(Trt)-OMe; configuration not given here), for which the T/C reads like this: (dose: 75.0 mg/kg/injection, schedule: Q04DX003 (sc), vehicle: Klucel (hydroxypropylcellulose) (HPC)) 99 % of control; under setting [8], 49 % of control; under setting [1], 63 % of control; under setting [2], 60 % of control.
`Nc1nc(N)c(N=O)c(Nc2ccc(Br)cc2)n1`: the T/C is 42 % of control under setting [3]; 42 % of control under setting [4]; 38 % of control under setting [5]; 40 % of control (dose: 2400.0 mg/kg/injection, schedule: Q04DX003 (sc), vehicle: saline with Tween-80).
As to `COC1=C(OC)C(=O)C(C/C=C(\C)CC/C=C(\C)CC/C=C(\C)CC/C=C(\C)CC/C=C(\C)CC/C=C(\C)CC/C=C(\C)CC/C=C(\C)CC/C=C(\C)CCC=C(C)C)=C(C)C1=O`, the T/C was 153 % of control (dose: 400.0 mg/kg/injection, schedule: Q01DX010 (sc), vehicle: saline with Tween-80) and 118 % of control (dose: 800.0 mg/kg/injection, schedule: Q01DX010 (sc), vehicle: saline with Tween-80).
Consider `C/C=C1\C[C@@H]2C(OC)Nc3cc(O)c(OC)cc3C(=O)N2C1` (stereo partly drawn), for which the T/C reads like this: (dose: 1.0 mg/kg/injection, schedule: Q04DX003 (sc), vehicle: saline) 78 % of control; (dose: 2.0 mg/kg/injection, schedule: Q04DX003 (sc), vehicle: suspension in saline) 23 % of control and 31 % of control; (dose: 4.0 mg/kg/injection, schedule: Q04DX003 (sc), vehicle: saline) 7 % of control and 26 % of control; (dose: 4.0 mg/kg/injection, schedule: Q04DX003 (sc), vehicle: suspension in saline) 1 % of control and 3 % of control; (dose: 8.0 mg/kg/injection, schedule: Q04DX003 (sc), vehicle: suspension in saline) -71 % of control.
On to `CN1CCN(c2ccc([N+](=O)[O-])c3no[n+]([O-])c23)CC1`, for which the T/C by setting is: (dose: 20.0 mg/kg/injection, schedule: Q01DX010 (sc), vehicle: saline with Tween-80) 45 % of control; (dose: 40.0 mg/kg/injection, schedule: Q01DX010 (sc), vehicle: saline with Tween-80) 69 % of control.
Consider `CC[As](=O)(O)CC`, for which the T/C was 96 % of control (dose: 100.0 mg/kg/injection, schedule: Q04DX003 (sc), vehicle: saline) and 88 % of control (dose: 200.0 mg/kg/injection, schedule: Q04DX003 (sc), vehicle: saline).
